Residues, ends and D or L forms follow the SMILES beside them.
Key:
[1] = tested on: thrombin receptor (LM and RA assays); assay: Activity of cyclic TRPs in the bioassays previously described (assay not specified); format: cell-based; details: concentration tested 9 to 200 μM, differs per compound
Protocol: (§1) The guinea pig gastric longitudinal muscle (GLM) strips and the rat thoracic aorta (RA) ring preparations were isolated as previously described 14, 15. In brief, gastric LM strips (3×10 mm), obtained from male albino Hartley strain guinea pigs were equilibrated for about 1.5 h at 37° (in an aerated (95% O2 /5% CO2) Krebs-Henseleit buffer (3 mL) of the following composition (in mM): NaCl, 118; KCl, 4.7; CaCl2, 2.5; MgCl2, 1.2; NaHCO3, 25; KH2 PO4, 1.2; and glucose, 10. The pH was maintained at 7.4. Rat gastric LM strips (3×10 mm) were obtained, as for the GLM strips, from male albino Sprague Dawley animals (250-300 g). The stomach, opened along the greater curvature, was stripped free of all mucosal tissue under microscopic visualization and longitudinal tissue strips were cut exactly at right angles to the visible circular muscle bundles. Tissue strips were pre-equilibrated in the buffer described above. Each tissue was challenged twice each in succession at timed intervals with 50 nM carbachol (20 min intervals), 1 μM angiotensin-II (1 h intervals) and 95 μM (60 μg/mL) receptor pentapeptide (P5, SFLLR, SEQ ID NO: 2) (25 min intervals for GLM; 30-35 min for RLM); tissues were washed at 10 and 15 min after the additions of agonists. Contractions were monitored isometrically using Statham force-displacement transducers. […]
Thoracic RA rings (2 mm×3 mm), obtained from male albino Sprague Dawley rats, were equilibrated (about 1 h, 37° ) in the same organ bath buffer as was used for the LM tissue, and tension (baseline 1.0 g) was monitored isometrically using either Statham or Grass force-displacement transducers. […] Therefore, to construct concentration-effect curves and to normalize data between individual preparations, the relaxation responses to P5 and to the other TRPs were expressed as a percentage of the relaxation caused by 215 μM (137 μg/mL) of P5 (% P5215). For purposes of comparison, the same stock solutions of an individual peptide were evaluated, relative to P5, in both the RA and LM bioassays. […]
Cyclic TRPs were evaluated using the bioassays previously described.

[2] = biological target: T1, thrombin receptor (guinea pig gastric longitudinal muscle strips) (Cavia porcellus, UniProt A0A286XH07); details: for Relative potency (REC) GLM: average concentration ratio relative to P5 causing equal contractile response (REC = EC TRP ÷ EC P5)
T1 sequence (A0A286XH07 24-426): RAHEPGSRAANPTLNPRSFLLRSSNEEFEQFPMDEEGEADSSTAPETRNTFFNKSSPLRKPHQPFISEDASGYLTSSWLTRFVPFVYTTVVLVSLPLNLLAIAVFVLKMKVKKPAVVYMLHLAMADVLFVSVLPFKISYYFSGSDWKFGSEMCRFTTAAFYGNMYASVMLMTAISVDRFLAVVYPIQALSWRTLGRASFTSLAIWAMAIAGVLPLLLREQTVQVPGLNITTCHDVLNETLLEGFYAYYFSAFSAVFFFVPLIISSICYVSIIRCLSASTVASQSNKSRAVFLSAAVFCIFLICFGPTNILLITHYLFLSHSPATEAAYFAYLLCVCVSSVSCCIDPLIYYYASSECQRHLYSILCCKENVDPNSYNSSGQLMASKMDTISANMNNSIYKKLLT
Protocol: (§2) The guinea pig gastric longitudinal muscle (GLM) strips and the rat thoracic aorta (RA) ring preparations were isolated as previously described 14, 15. In brief, gastric LM strips (3×10 mm), obtained from male albino Hartley strain guinea pigs were equilibrated for about 1.5 h at 37° (in an aerated (95% O2 /5% CO2) Krebs-Henseleit buffer (3 mL) of the following composition (in mM): NaCl, 118; KCl, 4.7; CaCl2, 2.5; MgCl2, 1.2; NaHCO3, 25; KH2 PO4, 1.2; and glucose, 10. The pH was maintained at 7.4. Rat gastric LM strips (3×10 mm) were obtained, as for the GLM strips, from male albino Sprague Dawley animals (250-300 g). The stomach, opened along the greater curvature, was stripped free of all mucosal tissue under microscopic visualization and longitudinal tissue strips were cut exactly at right angles to the visible circular muscle bundles. Tissue strips were pre-equilibrated in the buffer described above. Each tissue was challenged twice each in succession at timed intervals with 50 nM carbachol (20 min intervals), 1 μM angiotensin-II (1 h intervals) and 95 μM (60 μg/mL) receptor pentapeptide (P5, SFLLR, SEQ ID NO: 2) (25 min intervals for GLM; 30-35 min for RLM); tissues were washed at 10 and 15 min after the additions of agonists. Contractions were monitored isometrically using Statham force-displacement transducers. Only tissues responding well to all three agonists were used further for the evaluation of the biological activities of P5 and other peptide agonists.

[3] = HPLC analysis of peptide recovered from RLM and RA organ bath solution; format: in vitro ADME, rat; details: just after peak of tissue response (5-10 min)
Protocol: As illustrated in FIG. 4 (lanes C and D), the organ bath solution withdrawn from either a RLM or RA assay (30-60 μg/mL P5 or 47.5 to 95 μM), just after the peak of tissue response, was subjected to analysis by HPLC and compared with a standard solution of P5 made immediately before HPLC analysis either in buffer alone or in buffer that had been exposed to tissue under the conditions of a bioassay. […] In FIG. 4, the peptide degradation products would have been eluted at retention times earlier than those of either P5 (17.33 min) or P5--NH2 (16.83 min).

[4] = tested on: thrombin receptor (rat thoracic aorta rings, intact endothelium); details: for Relative potency (REC) RA: average concentration ratio relative to P5 causing equal relaxation response (REC = EC TRP ÷ EC P5)
Protocol: Thoracic RA rings (2 mm×3 mm), obtained from male albino Sprague Dawley rats, were equilibrated (about 1 h, 37° ) in the same organ bath buffer as was used for the LM tissue, and tension (baseline 1.0 g) was monitored isometrically using either Statham or Grass force-displacement transducers. The presence of an intact endothelium was ascertained by monitoring a relaxation response to acetylcholine (ACh, 1 μM) in a preparation that was submaximally (EC75) contracted by 0.1 μM noradrenaline (NA) in the presence of 0.1 mM ascorbic acid (to preserve the catecholamine). Only tissues yielding a relaxation concentration-response curve between 0.01 and 10 μM acetylcholine (maximal relaxation of 70 to 90%, relative to the tension developed by 0.1 μM NA) were used for the further evaluation of the receptor-derived peptides. The assay of TRP responsiveness was done (e.g. see FIG. 1) on tissues that were precontacted with 0.1 μM NA at 30 min time intervals. Tissues were washed approx. 5 min after the application of TRPs. […] For purposes of comparison, the same stock solutions of an individual peptide were evaluated, relative to P5, in both the RA and LM bioassays. When possible, both assays were done simultaneously on the same day.
Weighed peptide samples were routinely dissolved in 50 mM phosphate buffer, pH 7.4, to yield stock solutions, from which volumes of up to 0.2 mL were added directly to the organ bath; the concentrations of all stock solutions used were verified by quantitative amino acid analysis of aliquots. Pr-P4 and Pr-P4--NH2 were dissolved in 40 mM phosphate buffer, pH 7.4, containing 20% v/v absolute ethanol (i.e. 8 Vol of the above 50 mM phosphate buffer +2 Vol. ethanol). […] Indomethacin was dissolved in ethanol, such that the final ethanol concentration in the organ bath was at or lower than 0.01% v/v; this concentration of ethanol alone had no effect on the bioassay systems.

[5] = biological target: T2, thrombin receptor (rat gastric longitudinal muscle strips) (Rattus norvegicus, UniProt P26824); assay: Rat gastric longitudinal muscle (RLM) strip contractile assay; format: cell-based
T2 construct: Rat gastric LM strips (3×10 mm) were obtained; from tissue; host or cells: rat (Sprague Dawley) gastric longitudinal muscle strips
T2 sequence (P26824 22-432): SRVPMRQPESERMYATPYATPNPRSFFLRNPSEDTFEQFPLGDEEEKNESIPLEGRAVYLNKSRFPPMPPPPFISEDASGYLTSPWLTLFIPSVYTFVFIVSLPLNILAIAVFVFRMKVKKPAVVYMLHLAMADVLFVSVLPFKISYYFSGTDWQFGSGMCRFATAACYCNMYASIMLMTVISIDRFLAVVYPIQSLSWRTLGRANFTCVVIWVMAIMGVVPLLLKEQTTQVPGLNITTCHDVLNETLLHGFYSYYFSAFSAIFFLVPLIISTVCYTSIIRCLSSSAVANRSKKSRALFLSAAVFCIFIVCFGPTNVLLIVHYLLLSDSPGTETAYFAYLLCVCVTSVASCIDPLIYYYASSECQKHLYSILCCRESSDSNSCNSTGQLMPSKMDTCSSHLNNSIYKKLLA
Source text: We obtained an evaluation of the potencies of the various TRPs, relative to P5, by using the linear portions of the concentration-effect curves, so as to calculate for several response levels the average ratio of concentrations (REC) of an individual TRP, relative to concentration of P5 that caused the same contractile response (i.e. REC =ECTRP .div.ECPS). […] In the RA assay, a similar approach to the estimate of relative potencies (REC S) was used, even though all agonists, except for P5--OCH3, appeared to cause equivalent maximal relaxation (FIG. 2, lower).
as §2, with “peptide agonists. For the GLM and RLM assays, concentration-effect curves for all peptides were constructed by expressing the response of each agonist as a percentage (% P595) relative to the contraction caused by 95 μM (60 μg/mL) P5 (0.9±0.1 g tension: mean ±S.E.M. for n=12 in the GLM; 1.6±0.9 g tension: mean ±S.E.M. for n=36 in the RLM).” for “peptide agonists.”
Weighed peptide samples were routinely dissolved in 50 mM phosphate buffer, pH 7.4, to yield stock solutions, from which volumes of up to 0.2 mL were added directly to the organ bath; the concentrations of all stock solutions used were verified by quantitative amino acid analysis of aliquots. Pr-P4 and Pr-P4--NH2 were dissolved in 40 mM phosphate buffer, pH 7.4, containing 20% v/v absolute ethanol (i.e. 8 Vol of the above 50 mM phosphate buffer +2 Vol. ethanol). Control aliquots of the ethanol-containing phosphate buffer alone had no effect on either of the bioassay systems. Acetylcholine, carbachol, indomethacin, noradrenaline and angiotensin-II and thrombin (human, 3000 to 4000 U/mg; 1 U/mL.perspectiveto.10 nM) were from Sigma (St. Louis, Mo.); genistein (GS) was from ICN Biochemicals, Costa Mesa, Calif. Tyrphostin (TP) (RG 50864, also designated AG213) was obtained through the courtesy of Dr. R. R. Swillo, Rhone-Poulenc Rorer (Collegeville, Pa). […] Indomethacin was dissolved in ethanol, such that the final ethanol concentration in the organ bath was at or lower than 0.01% v/v; this concentration of ethanol alone had no effect on the bioassay systems.

[6] = tested on: thrombin receptor (gastric longitudinal muscle strips); assay: Gastric longitudinal muscle (LM) assay, either or both GLM and RLM; format: cell-based
Protocol: LM: Either or both GLM and RLM
as §1, with “Each tissue was challenged twice each in succession at timed intervals with 50 nM carbachol (20 min intervals), 1 μM angiotensin-II (1 h intervals) and 95 μM (60 μg/mL) receptor pentapeptide (P5, SFLLR, SEQ ID NO: 2) (25 min intervals for GLM; 30-35 min for RLM); tissues were washed at 10 and 15 min after the additions of agonists.” left out
Weighed peptide samples were routinely dissolved in 50 mM phosphate buffer, pH 7.4, to yield stock solutions, from which volumes of up to 0.2 mL were added directly to the organ bath; the concentrations of all stock solutions used were verified by quantitative amino acid analysis of aliquots. […]

[7] = tested on: platelets; details: reported previously; cited from earlier work

| Compound | Activity relative to SFLLR (SEQ ID NO:2) (P-5) (ECcyclic /ECP-5) [1] | Relative potency (REC) GLM [2] | Recovery of intact peptide from organ bath (HPLC) ([3]; RA organ bath) | Recovery of intact peptide from organ bath (HPLC) ([3]; RLM organ bath) | Relative potency (REC) RA [4] | Relative potency (REC) RLM [5] | further results |
| --- | --- | --- | --- | --- | --- | --- | --- |
| CC(C)C[C@@H]1NC(=O)[C@H](Cc2ccccc2)NC(=O)CNC(=O)[C@H](CCCNC(=N)N)NC(=O)[C@H](CC(C)C)NC1=O (cyclo(FLLRG)) | 4 | – | – | – | – | – | – |
| CC(C)C[C@H](NC(=O)[C@H](CC(C)C)NC(=O)[C@H](Cc1ccccc1)NC(=O)[C@@H](N)CO)C(=O)N[C@@H](CCCNC(=N)N)C(=O)O [P5, S42 FLLR46, reference compound] | – | 1 | Quantitative recovery | essentially quantitative recovery | 1 | 1 | – |
| CC(C)C[C@H](NC(=O)[C@H](CC(C)C)NC(=O)[C@H](Cc1ccccc1)NC(=O)[C@@H](N)CO)C(=O)N[C@@H](CCCNC(=N)N)C(N)=O [P5-NH-2, S42 FLLR46 -amide] | – | 0.1 | recovered essentially intact | recovered essentially intact | 0.1 | 0.2 | Desensitization on repeated administration ([2]; GLM): not; Agonist (relaxation) activity ([4]; RA, precontracted with 0.1 μM noradrenaline): transient relaxation; Desensitization [6]: did not |
| SFALR | – | – | – | – | – | – | Activity in platelets [7]: little impact on the activity |

More lines, main results first:

| Activity relative to SFLLR (SEQ ID NO:2) (P-5) (ECcyclic /ECP-5) [1] | Compound | Relative potency (REC) GLM [2] | Recovery of intact peptide from organ bath (HPLC) ([3]; RA organ bath) | Recovery of intact peptide from organ bath (HPLC) ([3]; RLM organ bath) | Relative potency (REC) RA [4] | Relative potency (REC) RLM [5] | further results |
| --- | --- | --- | --- | --- | --- | --- | --- |
| not active at this concentration | CC(C)C[C@@H]1NC(=O)[C@H](Cc2ccccc2)NC(=O)[C@H](CO)NC(=O)[C@H](CCCNC(=N)N)NC(=O)[C@H](CC(C)C)NC1=O | – | – | – | – | – | – |
| 2 | CC(C)C[C@@H]1NC(=O)[C@H](Cc2ccccc2)NC(=O)[C@H](CCCNC(=N)N)NC(=O)[C@H](CC(C)C)NC1=O (cyclo(FLLR)) | – | – | – | – | – | – |
